Source: ChEMBL document CHEMBL4627399, “Synthesis and Structure-Activity Relationships of 5'-Aryl-14-alkoxypyridomorphinans: Identification of a μ Opioid Receptor Agonist/δ Opioid Receptor Antagonist Ligand with Systemic Antinociceptive Activity and Diminished Opioid Side Effects” (J Med Chem, 2020)
pEC50, pIC50, pKi: −log10 of the molar value. Active and inactive are the calls of the source. No cut-off for these calls is given here.

Key:
[1] = target: T1, Mu-type opioid receptor (Homo sapiens, UniProt P35372); conditions: cho
[2] = target: T2, Kappa-type opioid receptor (Homo sapiens, UniProt P41145); assay: Displacement of [3H]-diprenorphine from human kappa opioid receptor expressed in CHO cell membranes incubated for 1 hr by competition radioligand binding assay
[3] = target: T3, Delta-type opioid receptor (Homo sapiens, UniProt P41143); assay: Antagonist activity at human delta opioid receptor expressed in CHO cell membranes assessed as reduction in SNC80-induced [35S]GTPgammaS binding preincubated for 5 mins followed by SNC80 addition and measured after 1 hr; assay type: functional
[4] = target: T3, Delta-type opioid receptor; assay: Displacement of [3H]-diprenorphine from human delta opioid receptor expressed in CHO cell membranes incubated for 1 hr by competition radioligand binding assay
[5] = Stability in human liver microsomes at 1 uM measured up to 60 mins by LC-MS/MS analysis; assay type: ADME, Microsome; conditions: 1 h
[6] = target: T1, Mu-type opioid receptor; assay: biochemical; assay type: cell-based, CHO
[7] = target: T1, Mu-type opioid receptor; assay: Agonist activity at human mu opioid receptor expressed in CHO cell membranes assessed as stimulation of [35S]GTPgammaS binding incubated for 1 hr relative to DAMGO; assay type: functional
[8] = target: T1, Mu-type opioid receptor; assay: biochemical
[9] = target: T2, Kappa-type opioid receptor; assay: Agonist activity at human kappa opioid receptor expressed in CHO cell membranes assessed as stimulation of [35S]GTPgammaS binding incubated for 1 hr relative to […]; assay type: functional
[10] = target: T2, Kappa-type opioid receptor; assay: Agonist activity at human kappa opioid receptor expressed in CHO cell membranes incubated for 1 hr by [35S]GTPgammaS binding assay; assay type: functional; conditions: cho
[11] = tested on: Mus musculus; assay: Antinociceptive activity in iv dosed CD-1 mouse measured after 15 mins by warm water tail-flick assay; assay type: functional, organism-based
[12] = Reward liability in CD-1 mouse assessed as increase in conditioned place preference at 20 mg/kg, sc administered for 5 days and measured on day 5 for 15 mins; assay type: ADME, organism-based; conditions: in vivo
[13] = Induction of respiratory depression in CD-1 mouse assessed as reduction in minute ventilation at 32 mg/kg, ip measured over 45 mins by plethysmography; assay type: organism-based; conditions: in vivo
[14] = Induction of spontaneous withdrawal in naloxone-induced CD-1 mouse assessed as increase in fecal pellets at 32 mg/kg, sc administered twice daily at 9 am and 5 pm for 3 days pretreated followed by naloxone challenge on day 4 at 4 hrs post compound dose and measured for 40 mins; assay type: organism-based; conditions: in vivo
[15] = Induction of spontaneous withdrawal in CD-1 mouse assessed as effect on number of droppings at 32 mg/kg, sc and administered twice daily at 9 am and 5 pm for 3 days and measured on day 4 for 30 mins; assay type: organism-based; conditions: in vivo, 0.5 h
[16] = Induction of spontaneous withdrawal in CD-1 mouse assessed as effect on fecal output at 32 mg/kg, sc and administered twice daily at 9 am and 5 pm for 3 days and measured on day 4 for 30 mins; assay type: organism-based; conditions: in vivo
[17] = Induction of spontaneous withdrawal in CD-1 mouse assessed as ptosis at 32 mg/kg, sc and administered twice daily at 9 am and 5 pm for 3 days and measured on day 4 for 30 mins; assay type: organism-based; conditions: in vivo, 0.5 h
[18] = Reward liability in CD-1 mouse assessed as increase in conditioned place aversion at 20 mg/kg, sc administered for 5 days and measured on day 5 for 15 mins; assay type: ADME, organism-based; conditions: in vivo, 0.25 h
[19] = Induction of spontaneous withdrawal in CD-1 mouse assessed as wet dog shakes at 32 mg/kg, sc and administered twice daily at 9 am and 5 pm for 3 days and measured on day 4 for 30 mins; assay type: organism-based; conditions: in vivo, 0.5 h
[20] = Induction of respiratory depression in CD-1 mouse assessed as reduction in respiratory rate at 32 mg/kg, ip measured over 45 mins by plethysmography; assay type: organism-based; conditions: in vivo
[21] = Induction of spontaneous withdrawal in naloxone-induced CD-1 mouse assessed as increase in urine output at 32 mg/kg, sc administered twice daily at 9 am and 5 pm for 3 days pretreated followed by naloxone challenge on day 4 at 4 hrs post compound dose and measured for 40 mins; assay type: organism-based; conditions: in vivo
[22] = tested on: Mus musculus; assay: Antinociceptive activity in iv dosed CD-1 mouse measured after 10 to 180 mins by warm water tail-flick assay; assay type: functional, organism-based
[23] = Induction of spontaneous withdrawal in CD-1 mouse assessed as effect on urine output at 32 mg/kg, sc administered twice daily at 9 am and 5 pm for 3 days and measured on day 4 for 30 mins; assay type: organism-based; conditions: in vivo
[24] = Induction of spontaneous withdrawal in CD-1 mouse assessed as effect on jumping behavior at 32 mg/kg, sc and administered twice daily at 9 am and 5 pm for 3 days and measured on day 4 for 30 mins; assay type: organism-based; conditions: in vivo, 0.5 h
[25] = tested on: Mus musculus; assay: Antinociceptive activity in naloxone induced CD-1 mouse at 32 mg/kg, sc measured over 4 hrs by warm water tail-flick assay; assay type: functional, organism-based
[26] = Induction of respiratory depression in CD-1 mouse assessed as reduction in tidal volume at 32 mg/kg, ip measured over 45 mins by plethysmography; assay type: organism-based; conditions: in vivo
[27] = tested on: Mus musculus; assay: Antinociceptive activity in CD-1 mouse administered twice daily at 9 am and 5 pm for 3 days measured on day 4 by warm water tail-flick assay; assay type: functional
[28] = Induction of spontaneous withdrawal in CD-1 mouse assessed as effect on backward walking steps at 32 mg/kg, sc and administered twice daily at 9 am and 5 pm for 3 days and measured on day 4 for 30 mins; assay type: organism-based; conditions: in vivo, 0.5 h
[29] = tested on: Mus musculus; assay: Antinociceptive activity in CD-1 mouse at 1 to 10 mg/kg, iv measured after 15 to 90 mins by warm water tail-flick assay; assay type: functional, organism-based
[30] = Induction of physical dependence in naloxone-induced CD-1 mouse assessed as increase in jumping behavior at 32 mg/kg, sc administered twice daily at 9 am and 5 pm for 3 days pretreated followed by naloxone challenge on day 4 at 4 hrs post compound dose and measured for 40 mins; assay type: organism-based; conditions: in vivo
[31] = Induction of spontaneous withdrawal in CD-1 mouse assessed as paw tremors at 32 mg/kg, sc and administered twice daily at 9 am and 5 pm for 3 days and measured on day 4 for 30 mins; assay type: organism-based; conditions: in vivo, 0.5 h
[32] = Induction of physical dependence/precipitated withdrawal in naloxone-induced CD-1 mouse assessed as overall withdrawal score at 32 mg/kg, sc administered twice daily at 9 am and 5 pm for 3 days pretreated followed by naloxone challenge on day 4 at 4 hrs post compound dose and measured for 40 mins; assay type: organism-based; conditions: in vivo
[33] = Induction of tidal volume in CD-1 mouse up to 32 mg/kg, ip administered via bolus under 5% CO2 exposure for 7 mins and measured over 45 mins by whole body plethysmography; assay type: organism-based; conditions: in vivo

Oc1ccc2c3c1O[C@H]1c4ncc(-c5ccc(Cl)cc5)cc4C[C@@]4(OCCCc5ccncc5)[C@@H](C2)N(CC2CC2)CC[C@]314
EC50 [1]: Not Active
pKi [2]: 7.99
pIC50 [3]: 8.33
pKi [4]: 8.28
Stability [5]: Stable
pKi [6]: 8.27
Emax [7]: inactive

Oc1ccc2c3c1O[C@H]1c4ncc(-c5ccc(Cl)cc5)cc4C[C@@]4(OCCOc5ccccc5)[C@@H](C2)N(CC2CC2)CC[C@]314
EC50 [1]: Not Active
pKi [2]: 7.67
pIC50 [3]: 7.60
pKi [4]: 6.76
Stability [5]: Stable
pKi [6]: 6.09
Emax [7]: inactive

Cc1nnc(-c2cnc3c(c2)C[C@@]2(OCCCc4ccccc4)[C@H]4Cc5ccc(O)c6c5[C@@]2(CCN4CC2CC2)[C@H]3O6)o1
pKi [2]: 7.83
pIC50 [3]: > 9.77
pKi [4]: 8.09
pEC50 [8]: 7.76
Stability [5]: Stable
Emax [9]: inactive
EC50 [10]: Not Active
pKi [6]: 8.50
Activity [11]: Dose-dependent effect

Oc1ccc2c3c1O[C@H]1c4ncc(-c5ccccc5)cc4C[C@@]4(OCCCc5ccncc5)[C@@H](C2)N(CC2CC2)CC[C@]314
EC50 [1]: Not Active
pKi [2]: 7.66
pIC50 [3]: > 9.29
pKi [4]: 7.53
Stability [5]: Stable
pKi [6]: 8.42
Emax [7]: inactive

Oc1ccc2c3c1O[C@H]1c4ncc(-c5ccc(Cl)cc5)cc4C[C@@]4(OCc5ccc6ccccc6n5)[C@@H](C2)N(CC2CC2)CC[C@]314
EC50 [1]: Not Active
pKi [2]: 7.51
pIC50 [3]: 7.97
pKi [4]: 7.49
Stability [5]: Stable
pKi [6]: 6.10
Emax [7]: inactive

COc1ccccc1-c1cnc2c(c1)C[C@@]1(OCCCc3ccccc3)[C@H]3Cc4ccc(O)c5c4[C@@]1(CCN3CC1CC1)[C@H]2O5
pKi [2]: 6.90
pIC50 [3]: 9.10
pKi [4]: 7.53
pEC50 [8]: 8.14
Stability [5]: Stable
Emax [9]: inactive
EC50 [10]: Not Active
pKi [6]: 7.21

COc1cccc(-c2cnc3c(c2)C[C@@]2(OCCCc4ccccc4)[C@H]4Cc5ccc(O)c6c5[C@@]2(CCN4CC2CC2)[C@H]3O6)c1
Activity [12]: Non-Toxic
Activity [13]: Non-Toxic
Activity [14]: Toxic
Activity [15]: Non-Toxic
pKi [2]: 6.99
Activity [16]: Non-Toxic
Activity [17]: Non-Toxic
pIC50 [3]: 8.62
Activity [18]: Non-Toxic
pKi [4]: 7.32
Activity [19]: Non-Toxic
Activity [20]: Non-Toxic
Activity [21]: Toxic
Stability [5]: Stable
Activity [22]: Dose-dependent effect
Activity [23]: Non-Toxic
Activity [24]: Non-Toxic
Emax [9]: inactive
Activity [25]: inactive
EC50 [10]: Not Active
Activity [26]: Non-Toxic
ED50 [27]: 25.4 mg/kg
Activity [28]: Non-Toxic
Activity [29]: Active
Activity [30]: Non-Toxic
Activity [31]: Non-Toxic
Activity [32]: Toxic
Activity [33]: Toxic

Oc1ccc2c3c1O[C@H]1c4ncc(-c5cncnc5)cc4C[C@@]4(OCCCc5ccccc5)[C@@H](C2)N(CC2CC2)CC[C@]314
pKi [2]: 7.61
pIC50 [3]: 9.06
pKi [4]: 8.29
pEC50 [8]: < 5.48
Stability [5]: Stable
Emax [9]: inactive
EC50 [10]: Not Active
pKi [6]: 7.32

COc1cc(-c2cnc3c(c2)C[C@@]2(OCCCc4ccccc4)[C@H]4Cc5ccc(O)c6c5[C@@]2(CCN4CC2CC2)[C@H]3O6)ccn1
pKi [2]: 8.18
pIC50 [3]: 9.15
pKi [4]: 8.46
pEC50 [8]: 8.57
Stability [5]: Stable
Emax [9]: inactive
EC50 [10]: Not Active
pKi [6]: 7.97

Oc1ccc2c3c1O[C@H]1c4ncc(-c5cn[nH]c5)cc4C[C@@]4(OCCCc5ccccc5)[C@@H](C2)N(CC2CC2)CC[C@]314
pKi [2]: 7.53
pIC50 [3]: 9.21
pKi [4]: 6.59
pEC50 [8]: 8.48
Stability [5]: Stable
Emax [9]: inactive
EC50 [10]: Not Active
pKi [6]: 6.92

Cn1cc(-c2cnc3c(c2)C[C@@]2(OCCCc4ccccc4)[C@H]4Cc5ccc(O)c6c5[C@@]2(CCN4CC2CC2)[C@H]3O6)cn1
pKi [2]: 8.08
pIC50 [3]: 7.71
pKi [4]: 8.10
pEC50 [8]: 6.18
Stability [5]: Stable
Emax [9]: inactive
EC50 [10]: Not Active
pKi [6]: 8.42

Oc1ccc2c3c1O[C@H]1c4ncc(-c5ccncc5)cc4C[C@@]4(OCCCc5ccccc5)[C@@H](C2)N(CC2CC2)CC[C@]314
pKi [2]: 7.80
pIC50 [3]: 7.74
pKi [4]: 8.19
pEC50 [8]: 7.25
Stability [5]: Stable
Emax [9]: inactive
EC50 [10]: Not Active
pKi [6]: 7.33
